US20230181524A1, “PHARMACEUTICAL COMBINATION AND USE THEREOF” (NATURAL MEDICINE INSTITUTE OF ZHEJIANG YANGSHENGTANG CO., …, priority 2020, published 2023)
Entries after “also recorded” stand apart in the source; their conditions may differ.

How the values were obtained:
[1] = tested on: HOS human osteosarcoma cells; test: Cell counts of drug combination administration (Trypan Blue), cell viability
Method: (§1) (1) Cells were plated in a 10 cm culture plate to grow a density of about 90%. The medium was removed, and the adherent cells were washed once with a PBS buffer. 1 mL of trypsin was added, and immediately discarded after mixing well. The cells were placed in the incubator and digested for about 5 min, and then about 10 ml of fresh medium was added. 10 μL was taken for counting.
(§2) (2) 10 μL of the well-mixed cells were taken and mixed into 10 μL of Trypan Blue solution, and counted.
(§3) (3) After counting, the cells were diluted to 1×10^5 cells/ml. The diluted cells were mixed well, and plated into a 24-well plate with 500 μL per well, i.e., about 50,000 cells per well.
(§4) (4) The cells plated in the 24-well plate were cultured for about 24h, and then drugs were added. […]
(§5) (5) After 24h of dosing, the medium was discarded. About 150 μL of trypsin was added and then discarded. The cells were digested for 5 min;
(§6) (6) After digestion, equivalent amounts of PBS were added into each well and mixed uniformly. Then, 10 μL/well of Trypan Blue solution was added and mixed uniformly. 10 μL of the well-mixed solution was taken and counted. In accordance with “Cell viability=Cell Count of Test Group/Cell Count of Control Group×100%”, the cell viability of various groups was calculated.
(§7) The coefficient of drug in interaction (CDI) was used to evaluate the nature of the interaction between the two drugs. The test groups were divided into the control group, the group of A drug, the group of B drug and the group of AB in combination, and used for detecting the cell viability in A, B and AB groups, respectively.

[2] = tested on: 143B human osteosarcoma cells; test: as above; conditions: 143B cells
Method: as §1, §2, §3, §4, §5, §6, §7

[3] = tested on: HEK293 cells; test: Cell viability compared with HEK293 cells (specificity); type: cell-based; conditions: in combination with ascorbic acid
Method: HEK293 cells, HOS human osteosarcoma cells, and 143B human osteosarcoma cells were subcultured in an incubator at 37° C., 5% CO2 using a RPMI-1640 medium containing 10% fetal bovine serum (FBS).
10 μL was taken for counting.
(5) After 24h of dosing, the medium was discarded. […] The cells were digested for 5 min;

[4] = 0.1 μM in combination with 0.5 mM sodium ascorbate

Cn1ncnc2c(=O)n(C)c(=O)nc1-2 [PKF118-310]
CDI value (coefficient of drug interaction) [1, 4]: 0.12
cell viability [1, 4]: 10%
cell viability ([1]; single-drug 0.1 μM, 24h): 94%
CDI value [2, 4]: 0.04
cell viability [2, 4]: 2%
cell viability ([2]; single-drug 0.1 μM, 24h): 91%
specificity of inhibition of tumor cell viability as compared with the HEK293 cells [3]: can specifically inhibit the cell viability of the 143B cells and the HOS cells; also recorded: can specifically inhibit the activity of the HCT116 cells and the MC38 cells
